Measurements taken from patent US20240300959A1, “BALASUBRAMIDE DERIVATIVE AND USE THEREOF IN PREPARATION OF MEDICINE FOR TREATING ACUTE LUNG INJURY” (Guangdong Pharmaceutical University, priority 2023, published 2024).

Key:
RAW264.7 cells = test: Cytotoxicity test, CCK-8 cell viability of RAW264.7 cells (24 h); type: cell-based, mice; conditions: 10 μM, RAW264.7 cell viability
Description: RAW264.7 cells were inoculated into a 96-well plate at a density of 1×10^5 per well. When the cell density was 70%-80%, the RAW264.7 cells were pretreated with 10 mM working solutions prepared from 18 balasubramide derivatives at a final concentration of 10 μM for 24 h, and then the cell viability was determined by a CCK-8 method.

[1] = tested on: TNF-α in RAW264.7 macrophages stimulated by lipopolysaccharide; test: TNF-α ELISA in cell supernatant of LPS-stimulated RAW264.7 macrophages; type: cell-based, mice; conditions: 10 μM; for activity at 10 µM: Mus musculus, RAW264.7, 2 h, 3 h pretreatment, LPS 100 ng/mL 2 h, RAW264.7, read-out: Percentage of TNF-α in a model group (%)
Description: RAW264.7 cells were inoculated into a 96-well plate at a density of 1×10^5 per well. When the cell density was 70%-80%, 18 balasubramide derivatives were prepared into 10 mM working solutions with DMSO, respectively, and then used to pretreat mononuclear macrophages RAW264.7 of mice at a final concentration of 10 μM. After 3 h, lipopolysaccharide (LPS, 100 ng/mL) was added into all wells for action for 2 h except for a control group. A supernatant was collected for later use, and the expression level of an inflammatory factor TNF-α in the cell supernatant was detected according to an operation instruction of a commercial ELISA kit.
RAW264.7 cells were inoculated into a 96-well plate at a density of 1×10^5 per well. When the cell density was 70%-80%, the RAW264.7 cells were pretreated with (+)3C-20 ([…]). After 3 h, lipopolysaccharide (LPS, 100 ng/mL) was added into all wells for action for 2 h except for a control group. The expression level of an inflammatory factor TNF-α in a cell supernatant was detected according to an operation instruction of a commercial ELISA kit, and the cell viability at different administration concentrations of (+)3C-20 was determined according to an operation instruction of a CCK-8 kit.

[2] = tested on: mice with acute lung injury caused by intratracheal instillation of lipopolysaccharide; test: Acute lung injury caused by lung exposure to bacterial endotoxin (intratracheal instillation of LPS); type: in vivo, ICR mice
Description: Grouping, administration and modeling of animals: Male ICR mice were used as experimental animals, which were randomly divided into a control group, a model group, a positive administration group and administration groups according to the body weight. The control group and the model group were administered with a solvent by intraperitoneal injection (the solvent was prepared from DMSO, Kolliphor HS15 and Saline at a ratio of 1:2:7), the positive administration group was administered with 5 mg/kg dexamethasone by intraperitoneal injection, and the administration groups were administered with (+)3C-20 at a concentration of 10 mg/kg and 50 mg/kg, respectively, by intraperitoneal injection. The dexamethasone and the (+)3C-20 were dissolved in the above solvent and were clear and transparent. The administration was continued for 3 days. 2 h after the last administration, the mice were anesthetized with 2.5% isoflurane, necks were disinfected, cortices of the necks were cut, and tracheae were separated. All other groups were administered with 50 μL of 10 mg/mL LPS (LPS dissolved in Saline) at a dose of 20 mg/kg by instillation while the control group was administered with 50 μL of Saline by intratracheal instillation (it.), and the cortices were sutured. 6 h after the instillation of LPS, the mice were sacrificed, and serum and lung tissues were taken for later use. Body weight and lung index: The mice were weighed and randomly divided on day 1 and continuously weighed for 3 days before administration. 2 h after the last administration, the mice were administered with 50 μL of […] LPS by intratracheal instillation. 6 h later, the mice were dissected, and the lungs were taken and weighed.
On day 3, 6 h after the intratracheal instillation of LPS, a part of the mice were subjected to perfusion with PBS and treated with paraformaldehyde to fix the right lobe of the lungs, another part of the mice were dissected to obtain lungs, and the lungs were frozen with liquid nitrogen for later use. The fixed right lungs were stained with hematoxylin-eosin (H&E) after dehydration, paraffin embedding and sectioning. 40 mg of the frozen lungs were cut, 300 μL of an RIPA lysis buffer was added thereto and homogenized by starting for 45 s and stopping for 15 s at a frequency of 60 Hz in 4 cycles for full lysis, and then centrifuged at 12,000 rpm at 4° C. A supernatant was taken, the protein concentration was calibrated and adjusted with a BCA protein assay kit, and then the level of an inflammatory factor TNF-α in lung tissue homogenates of various groups was detected by a commercial TNF-α ELISA kit. Results are shown in Table 10, FIG. 10-1 and FIG. 10-2.
A small amount of frozen lung tissues were taken, a Trizol lysis reagent was added thereto and fully ground, RNA was extracted according to an operation instruction of an RNA extraction kit, and the expression of inflammation related genes in the lung tissues was detected by an RT-PCR technology. Experimental results are shown in Table 11, FIG. 11-1 and FIG. 11-2.

[3] = tested on: mice with sepsis and lung injury caused by intraperitoneal injection of lipopolysaccharide; test: Acute lung injury caused by sepsis (intraperitoneal injection of lipopolysaccharide); type: in vivo, ICR mice
Description: Administration and grouping of animals: Male ICR mice were used as experimental animals, which were randomly divided into a control group, a model group, a positive administration group and administration groups according to the body weight. The control group and the model group were administered with a solvent by intraperitoneal injection (the solvent was prepared from DMSO, Kolliphor HS15 and Saline at a ratio of 1:2:7), the positive administration group was administered with 5 mg/kg dexamethasone (DEX) by intraperitoneal injection, and the administration groups were administered with (+)3C-20 at a concentration of 10 mg/kg and 50 mg/kg, respectively, by intraperitoneal injection. The dexamethasone and the (+)3C-20 were dissolved in the above solvent and were clear and transparent. The administration was continued for 3 days. 2 h after the last administration, all the other groups were administered with LPS (10 mg/kg) by intraperitoneal injection while the control group was administered with an equal volume of normal saline by intraperitoneal injection. Body weight and lung index: The mice were weighed and randomly divided on day 1 and continuously weighed for 3 days before administration, and growth conditions of the mice were measured by statistics. The mice were administered with LPS by intraperitoneal injection 2 h after administration on day 3, then the mice were dissected 6 h later, and the lungs were taken, weighed and recorded.
On day 3, 6 h after the intraperitoneal injection of LPS, whole blood was collected from eye sockets and then subjected to centrifugation to prepare serum, and the serum was frozen at −80° C. The lungs were subjected to perfusion with PBS and fixed by paraformaldehyde, and the fixed lungs were stained with hematoxylin-eosin (H&E) after dehydration, paraffin embedding and sectioning. The serum was tested by a commercial TNF-α ELISA kit. Histopathological results and data statistics are shown in FIG. 7-1, FIG. 7-2 and Table 7.
A small amount of frozen lung tissues were taken and fully ground, and the expression of inflammation related genes in the lung tissues was detected by an RT-PCR technology according to an operation instruction of an RNA extraction kit.

[4] = 5 mg/kg i.p., lung tissue RT-PCR, intratracheal LPS
[5] = 5 mg/kg intraperitoneal, intratracheal LPS model, in g (unit assumed)
[6] = 5 mg/kg i.p., lung tissue RT-PCR, i.p. LPS
[7] = 5 mg/kg intraperitoneal, i.p. LPS sepsis model, in g (unit assumed)

## CCOc1ccc2[nH]c3c(c2c1)CCNC(=O)[C@@H](OC(=O)CCc1ccc(C(F)(F)F)cc1)[C@@H]3c1ccc(C(F)(F)F)cc1 [(+)-D7a]
RAW264.7 cells
  Percentage of CCK-8 in a model group (%): 106.69 ± 1.21%
[1]
  activity at 10 µM: 97.7 ± 1.5%

## C[C@@H]1C[C@H]2[C@@H]3CCC4=CC(=O)C=C[C@]4(C)[C@@]3(F)[C@@H](O)C[C@]2(C)[C@@]1(O)C(=O)CO [Dexamethasone, dexamethasone, reference compound]
[2]; 5 mg/kg i.p., 6 h after intratracheal LPS
  Content of TNF-α in a lung tissue homogenate (% of Model): 54.882 ± 6.836 % of Model
[2]; 5 mg/kg i.p., 6 h after intratracheal LPS, H&E lung sections
  Area percentage of alveolar cells (%): 34.322 ± 2.452 %
[2]; [4]
  Change multiple of COX-2: 2.75 ± 0.24
  Change multiple of IL-1β: 12.38 ± 1.28
  Change multiple of IL-6: 14.75 ± 2.71
  Change multiple of TNF-α: 18.63 ± 2.26
  Change multiple of iNOS: 10.02 ± 1.78
[2]; 5 mg/kg intraperitoneal 3 days, 6 h after intratracheal LPS
  Lung index (%): 0.591 ± 0.008 %
[2]; [5]
  Body weight (Day 1): 27.51 ± 0.11
  Body weight (Day 2): 28.75 ± 0.17
  Body weight (Day 3): 29.48 ± 0.17
[3]; 5 mg/kg i.p., 6 h after i.p. LPS
  Content of TNF-α in serum (% of Model): 40.09 ± 2.26 % of Model
[3]; 5 mg/kg i.p., 6 h after i.p. LPS, H&E lung sections
  Area percentage of alveolar cells (%): 32.2 ± 0.95 %
[3]; [6]
  Change multiple of IL-1β: 8.65 ± 1.04
  Change multiple of IL-6: 40.56 ± 7.55
  Change multiple of TNF-α: 6.09 ± 0.82
  Change multiple of iNOS: 2.61 ± 0.39
[3]; 5 mg/kg intraperitoneal 3 days, 6 h after i.p. LPS 10 mg/kg
  Lung index (%): 0.649 ± 0.01 %
[3]; [7]
  Body weight (Day 1): 25.11 ± 0.52
  Body weight (Day 2): 26.23 ± 0.38
  Body weight (Day 3): 26.97 ± 0.45

## Cn1c2c(c3ccccc31)CCNC(=O)[C@@H](OC(=O)CCc1ccc(C(F)(F)F)cc1)[C@@H]2c1ccc(C(F)(F)F)cc1 [(+)-c1]
RAW264.7 cells
  Percentage of CCK-8 in a model group (%): 105.02 ± 2.84%
[1]
  activity at 10 µM: 83.4%

## CC(C)(C)OC(=O)N[C@H](CC(=O)O[C@@H]1C(=O)NCCc2c([nH]c3ccccc23)[C@H]1c1ccc(C(F)(F)F)cc1)c1ccc(C(F)(F)F)cc1 [(+)-c5]
RAW264.7 cells
  Percentage of CCK-8 in a model group (%): 110.66 ± 0.55%
[1]
  activity at 10 µM: 71.77 ± 0.56%

## O=C1NCCc2c([nH]c3ccc(Br)cc23)[C@@H](c2ccccc2)[C@@H]1O [B001]
RAW264.7 cells
  Percentage of CCK-8 in a model group (%): 108.8 ± 2.72%
[1]
  activity at 10 µM: 71.9 ± 3.5%

## CCn1c2c(c3ccccc31)CCNC(=O)[C@@H](OC(=O)CCc1ccc(C(F)(F)F)cc1)[C@@H]2c1ccc(C(F)(F)F)cc1 [(+)-c2]
RAW264.7 cells
  Percentage of CCK-8 in a model group (%): 102.17 ± 2.74%
[1]
  activity at 10 µM: 101 ± 1.21%

## O=C1NCCc2c([nH]c3ccccc23)[C@@H](c2ccc(C(F)(F)F)cc2)[C@@H]1O [(+)-3C]
RAW264.7 cells
  Percentage of CCK-8 in a model group (%): 105.39 ± 4.26%
[1]
  activity at 10 µM: 86.4 ± 3.06%

## Cc1cccc2c3c([nH]c12)[C@@H](c1ccc(C(F)(F)F)cc1)[C@H](OC(=O)CCc1ccc(C(F)(F)F)cc1)C(=O)NCC3 [(+)-B3g]
RAW264.7 cells
  Percentage of CCK-8 in a model group (%): 101.49 ± 2.57%
[1]
  activity at 10 µM: 78.5%

## O=C(CCc1ccc(C(F)(F)F)cc1)O[C@@H]1C(=O)NCCc2c([nH]c3ccccc23)[C@H]1c1ccc(C(F)(F)F)cc1 (racemic) [(±)-3C-20]
[1]; RAW264.7, LPS
  anti-inflammatory activity (inhibition of expression of TNF-α in macrophages), in words: better anti-inflammatory activity than other derivatives

## O=C(CCc1ccc(C(F)(F)F)cc1)O[C@@H]1C(=O)NCCc2c([nH]c3cc(Cl)ccc23)[C@H]1c1ccc(C(F)(F)F)cc1 [(+)-B3f]
RAW264.7 cells
  Percentage of CCK-8 in a model group (%): 96.96 ± 3.85%
[1]
  activity at 10 µM: 90.2 ± 2.92%

## O=C(CCc1ccc(C(F)(F)F)cc1)O[C@@H]1C(=O)NCCc2c([nH]c3cccc(F)c23)[C@H]1c1ccc(C(F)(F)F)cc1 [(+)-B3a]
RAW264.7 cells
  Percentage of CCK-8 in a model group (%): 103.22 ± 1.79%
[1]
  activity at 10 µM: 91.2 ± 3.03%

## CCCn1c2c(c3ccccc31)CCNC(=O)[C@@H](OC(=O)CCc1ccc(C(F)(F)F)cc1)[C@@H]2c1ccc(C(F)(F)F)cc1 [(+)-c3]
RAW264.7 cells
  Percentage of CCK-8 in a model group (%): 110.41 ± 0.54%
[1]
  activity at 10 µM: 81.8 ± 1.11%

## O=C(CCc1ccc(C(F)(F)F)cc1)O[C@@H]1C(=O)NCCc2c([nH]c3ccc(Br)cc23)[C@H]1c1ccc(C(F)(F)F)cc1 [(+)-B3e]
RAW264.7 cells
  Percentage of CCK-8 in a model group (%): 95.66 ± 4.02%
[1]
  activity at 10 µM: 76.2%

## COc1ccc2[nH]c3c(c2c1)CCNC(=O)[C@@H](OC(=O)CCc1ccc(C(F)(F)F)cc1)[C@@H]3c1ccc(C(F)(F)F)cc1 [(+)-B3c]
RAW264.7 cells
  Percentage of CCK-8 in a model group (%): 96.16 ± 4.12%
[1]
  activity at 10 µM: 84.5%

## O=C(CCc1ccc(C(F)(F)F)cc1)O[C@@H]1C(=O)NCCc2c([nH]c3ccc(OC(=O)c4ccc([N+](=O)[O-])cc4)cc23)[C@H]1c1ccc(C(F)(F)F)cc1 [(+)-D7c]
RAW264.7 cells
  Percentage of CCK-8 in a model group (%): 109.17 ± 0.16%
[1]
  activity at 10 µM: 74.5 ± 3.55%
